The test system of this test is P388 leukemia ip, CD2F1 mice, survival T/C. The experiment in a line: NCI In Vivo Anticancer Drug Screen. Data for tumor model P388 Leukemia (intraperitoneal) in CD2F1 (CDF1) mice. Conditions: endpoint: median survival time, higher = longer survival. The method in brief: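 Mice carrying the transplanted tumor received test compound or vehicle. Survival was recorded in each group, and the value is the treated-group measurement divided by that of the vehicle-treated control group.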

[1] abbreviates: dose: 50.0 mg/kg/injection, schedule: Q01DX009 (ip), vehicle: Klucel (hydroxypropylcellulose) (HPC).
Where [2] appears, read: dose: 100.0 mg/kg/injection, schedule: Q01DX009 (ip), vehicle: Klucel (hydroxypropylcellulose) (HPC).
The mark [3] stands for this setting: dose: 200.0 mg/kg/injection, schedule: Q01DX009 (ip), vehicle: Klucel (hydroxypropylcellulose) (HPC).
Setting [4] is: dose: 100.0 mg/kg/injection, schedule: Q04DX002 (ip), vehicle: saline with Tween-80.
Where [5] appears, read: dose: 200.0 mg/kg/injection, schedule: Q04DX002 (ip), vehicle: saline with Tween-80.
Setting [6] is: dose: 60.0 mg/kg/injection, schedule: Q01DX005 (ip), vehicle: saline with Tween-80.
Setting [7] is: dose: 120.0 mg/kg/injection, schedule: Q01DX005 (ip), vehicle: saline with Tween-80.
The mark [8] stands for this setting: dose: 240.0 mg/kg/injection, schedule: Q01DX005 (ip), vehicle: saline with Tween-80.
[9] abbreviates: dose: 400.0 mg/kg/injection, schedule: Q04DX002 (ip), vehicle: saline with Tween-80.

Molecules are shown by their SMILES. “And” between values parts separate entries of the source, which are not always exact repeats. Equal values may be shown once. Inconclusive results and toxic doses are left out.

The source of these data is PubChem BioAssay AID330 (DTP/NCI, 2004).

Turning to `C=C1CCN(c2ccc(Br)cc2)C1=O`, the T/C runs as follows: (dose: 4.0 mg/kg/injection, schedule: Q01DX009 (ip), vehicle: saline + alcohol) 104 % of control; (dose: 8.0 mg/kg/injection, schedule: Q01DX009 (ip), vehicle: saline + alcohol) 92 % of control; (dose: 16.0 mg/kg/injection, schedule: Q01DX009 (ip), vehicle: saline + alcohol) 98 % of control; (dose: 32.0 mg/kg/injection, schedule: Q01DX009 (ip), vehicle: saline + alcohol) 91 % of control; (dose: 64.0 mg/kg/injection, schedule: Q01DX009 (ip), vehicle: saline + alcohol) 98 % of control.
For `COc1ccc(-c2c(S(C)(=O)=O)nsc2S(C)(=O)=O)cc1`, the T/C by setting is: under setting [1], 105 % of control; under setting [2], 106 % of control; under setting [3], 97 % of control.
Take `Cc1ccc2c(N(C)C)cc(N(C)C)nc2c1C`: the T/C under setting [1] was 104 % of control and the T/C under setting [2] was 105 % of control.
On to `Cn1c(=O)n2n(c1=O)C1C3C4C5C3C13COCC53C42` (stereo not drawn), for which the T/C was 97 % of control under setting [1], 97 % of control under setting [2] and 100 % of control under setting [3].
Turning to `[CH3][Ge]([c]1ccccc1)[c]1cccc2ccccc12.[CH3][Sn]([CH3])[c]1ccccc1`, the T/C reads like this: (dose: 100.0 mg/kg/injection, schedule: Q04DX003 (ip), vehicle: saline) 100 % of control; (dose: 200.0 mg/kg/injection, schedule: Q04DX003 (ip), vehicle: saline) 100 % of control; (dose: 400.0 mg/kg/injection, schedule: Q04DX003 (ip), vehicle: saline) 101 % of control.
Consider `CN(C)c1nc(NC=O)nc(N(C)C)n1`, for which the T/C (dose: 50.0 mg/kg/injection, schedule: Q04DX002 (ip), vehicle: saline with Tween-80) was 99 % of control; the T/C under setting [4] is 99 % of control; the T/C under setting [5] is 100 % of control.
On to `O=C1C=C(NCc2ccccc2)CCC1`, for which the T/C (dose: 1.56 mg/kg/injection, schedule: Q01DX009 (ip), vehicle: saline) is 109 % of control; the T/C (dose: 3.12 mg/kg/injection, schedule: Q01DX009 (ip), vehicle: saline) was 113 % of control; the T/C (dose: 6.25 mg/kg/injection, schedule: Q01DX009 (ip), vehicle: saline) was 100 % of control.
Turning to `CC1OP(=S)(S)OC1C` (stereo not drawn), the T/C (dose: 50.0 mg/kg/injection, schedule: Q01DX005 (ip), vehicle: saline) was 95 % of control and the T/C (dose: 100.0 mg/kg/injection, schedule: Q01DX005 (ip), vehicle: saline) was 100 % of control.
Consider `CC(C)=CCC(OC1OC(CO)C(O)C(O)C1N)C1=CC(=O)c2c(O)ccc(O)c2C1=O` (stereo not drawn), for which the T/C (dose: 2.5 mg/kg/injection, schedule: Q04DX002 (ip), vehicle: saline) is 103 % of control; the T/C (dose: 5.0 mg/kg/injection, schedule: Q04DX002 (ip), vehicle: saline) was 111 % of control; the T/C (dose: 10.0 mg/kg/injection, schedule: Q04DX002 (ip), vehicle: saline) was 114 % of control; the T/C (dose: 20.0 mg/kg/injection, schedule: Q04DX002 (ip), vehicle: saline) is 113 % of control; the T/C (dose: 40.0 mg/kg/injection, schedule: Q04DX002 (ip), vehicle: saline) was 111 % of control.
Turning to `Cn1c(N)nc2c(nc(OCc3ccccc3)n2C2OC(CO)C(O)C2O)c1=O` (stereo not drawn), the T/C is 100 % of control under setting [6], 94 % of control under setting [7] and 103 % of control under setting [8].
For `CC(=O)C1=C(N)C(C#N)=C(C)C(C)(O)C1` (stereo not drawn), the T/C (dose: 50.0 mg/kg/injection, schedule: Q01DX009 (ip), vehicle: saline + alcohol) was 108 % of control; the T/C (dose: 100.0 mg/kg/injection, schedule: Q01DX009 (ip), vehicle: saline + alcohol) is 90 % of control; the T/C (dose: 200.0 mg/kg/injection, schedule: Q01DX009 (ip), vehicle: saline + alcohol) was 89 % of control.
Regarding `Ic1ncnc2c1ncn2C1CCCCO1` (stereo not drawn), the T/C runs as follows: (dose: 100.0 mg/kg/injection, schedule: Q01DX009 (ip), vehicle: saline with Tween-80) 95 % of control; (dose: 100.0 mg/kg/injection, schedule: Q01DX009 (ip), vehicle: saline) 95 % of control; (dose: 100.0 mg/kg/injection, schedule: Q04DX003 (ip), vehicle: saline with Tween-80) 100 % of control; (dose: 200.0 mg/kg/injection, schedule: Q01DX009 (ip), vehicle: saline with Tween-80) 100 % of control; (dose: 200.0 mg/kg/injection, schedule: Q01DX009 (ip), vehicle: saline) 104 % of control; (dose: 200.0 mg/kg/injection, schedule: Q04DX003 (ip), vehicle: saline with Tween-80) 91 % of control. In addition, the T/C runs as follows: (dose: 400.0 mg/kg/injection, schedule: Q01DX009 (ip), vehicle: saline with Tween-80) 90 % of control; (dose: 400.0 mg/kg/injection, schedule: Q04DX003 (ip), vehicle: saline with Tween-80) 95 % of control.
Regarding `COc1ccc(CS(=O)CC(N)C(=O)O)cc1` (stereo not drawn), the T/C was 98 % of control under setting [4], 104 % of control under setting [5] and 86 % of control under setting [9].
`N=[N+]=CC(=O)OCC(N)C(=O)O` (stereo not drawn): the T/C (dose: 2.3 mg/kg/injection, schedule: Q01DX009 (ip), vehicle: water) was 118 % of control; the T/C (dose: 6.25 mg/kg/injection, schedule: Q04DX003 (ip), vehicle: water) is 120 % of control; the T/C (dose: 18.8 mg/kg/injection, schedule: Q01DX009 (ip), vehicle: water) was 86 % of control and 91 % of control; the T/C (dose: 20.0 mg/kg/injection, schedule: Q01DX009 (ip), vehicle: saline) is 169 % of control; the T/C (dose: 25.0 mg/kg/injection, schedule: Q01DX009 (ip), vehicle: saline) was 153 % of control; the T/C (dose: 25.0 mg/kg/injection, schedule: Q04DX003 (ip), vehicle: water) was 157 % of control. Besides, the T/C runs as follows: (dose: 40.0 mg/kg/injection, schedule: Q01DX009 (ip), vehicle: saline) 107 % of control and 121 % of control; (dose: 41.7 mg/kg/injection, schedule: Q01DX009 (ip), vehicle: saline) 166 % of control; (dose: 50.0 mg/kg/injection, schedule: Q04DX003 (ip), vehicle: water) 111 % of control.
In the case of `C=C1C(=O)OC2/C=C(\C)CC/C=C(/CO)C(OC(=O)C(C)(C)O)C(OC(=O)C(C)C)C12` (stereo not drawn), where the note is “dose: 5.0 mg/kg/injection, schedule: Q01DX009 (ip), vehicle: other”, the T/C is 107 % of control.
Turning to `CCCCCCCC/C=C\CCCCCCCC(=O)OCC(=O)OC`, the T/C under setting [1] was 98 % of control, the T/C under setting [2] was 104 % of control and the T/C under setting [3] was 110 % of control.
Take `O=C(c1ccccc1)C1(c2ccccc2)CCN(Cc2ccccc2)CC1`: the T/C under setting [4] was 93 % of control, the T/C under setting [5] was 86 % of control and the T/C under setting [9] was 94 % of control.
Turning to `C[N+]1=C(c2ccc[nH]2)CC(C(=O)[O-])CC1` (stereo not drawn), the T/C under setting [6] is 100 % of control, the T/C under setting [7] is 106 % of control and the T/C under setting [8] is 102 % of control.
On to `CC(=O)OC1CCC2C(=CCC3C2(C)C(=O)CC2(C)C(C4(C)OC(C(C)C)=CC4=O)C(O)CC32C)C1(C)C` (stereo not drawn), for which the T/C by setting is: (dose: 9.63 mg/kg/injection, schedule: Q01DX005 (ip), vehicle: saline + Tween-80 + alcohol) 111 % of control; (dose: 19.25 mg/kg/injection, schedule: Q01DX005 (ip), vehicle: saline + Tween-80 + alcohol) 111 % of control; (dose: 38.5 mg/kg/injection, schedule: Q01DX005 (ip), vehicle: saline + Tween-80 + alcohol) 106 % of control; (dose: 77.0 mg/kg/injection, schedule: Q01DX005 (ip), vehicle: saline + Tween-80 + alcohol) 97 % of control.
For the molecule `OCc1c(CO)c2cccn2c2c1cnn2-c1ccccc1`, the T/C reads like this: under setting [6], 100 % of control; under setting [7], 90 % of control; under setting [8], 89 % of control.
As for `C=Cc1c(C#N)nc(C)c(C)c1-c1ccc(OC)c(OC)c1OCc1ccccc1`, the T/C is 101 % of control (dose: 50.0 mg/kg/injection, schedule: Q01DX005 (ip), vehicle: Klucel (hydroxypropylcellulose) (HPC)); 95 % of control (dose: 100.0 mg/kg/injection, schedule: Q01DX005 (ip), vehicle: Klucel (hydroxypropylcellulose) (HPC)); 108 % of control (dose: 200.0 mg/kg/injection, schedule: Q01DX005 (ip), vehicle: Klucel (hydroxypropylcellulose) (HPC)).
Consider `CSc1nc(N)c(C(=O)Nc2cccc3ccccc23)s1`, for which the T/C runs as follows: under setting [1], 100 % of control; under setting [2], 97 % of control; under setting [3], 97 % of control.
